# Reference: patent US20160256371A1, “PHOTOSTABLE COMPOSITIONS COMPRISING PARA-ALKOXYL PHENYL SUBSTITUTED PROPENOIC ACID (APP) DERIVATIVES” (HALLSTAR INNOVATIONS CORP., priority 2015, published 2016)
# Assay: Photostability of BMDBM/OMC compositions in acetonitrile under UV irradiation, with and without APP analogue
# Format: physicochemical
# Details: no APP
# Experimental: Comparisons were performed to evaluate the abilities of APP derivatives of Formula I, Ia, Ib, Ic, Id, Ie, If, or combination thereof to photostabilize photoactive compounds. UV light exposure is often measured in MED rather than a measurement of time. MED relates to the minimal dosage of UV exposure required to result in redness 24 hours after exposure. Although technically an individualized measurement that would vary depending on the sensitivity of an individual's skin, MED measurements have been standardized with the advent of UV bulbs and lamps. FIG. 1 illustrates the photoinstability of a composition containing BMDBM and OMC. […] Absorption was measured for wavelengths 250 nm to 500 nm in length. BMDBM absorbs wavelengths around 375 nm in length, which can be seen as a distinct peak on the line illustrating the composition which was not irradiated with UV light. […] FIG. 2 illustrates the photostabilization of a photoactive composition by the addition of an APP analogue of Formula I. […] The APP analogue was a 1:1 blend of Formula Ia and Formula Ib. […] FIG. 3 illustrates the percentage of BMDBM remaining in compositions after irradiation with 15 MED of UV light. […] The APP analogue was a 1:1 blend of Formula Ia and Formula Ib.
structure (smiles),measurement,setting,value
"COc1ccc(C(=O)CC(=O)c2ccc(C(C)(C)C)cc2)cc1 [BMDBM, 4-tert-butyl-4-methoxy-dibenzoylmethane]",BMDBM absorption peak at 375 nm after UV irradiation,"acetonitrile solution, 10 ppm BMDBM and 10 ppm OMC, 15 MED versus 0 MED, FIG. 1",substantially diminished
same,percentage of BMDBM remaining capable of absorbing light at 375 nm after irradiation,"composition of 10 ppm BMDBM and 10 ppm OMC, 15 MED of UV light, FIG. 3",2.9%
